From patent US5484940A, “Substituted 3-indolyl-5-pyrazolone compounds” (priority 1994, dated 1996)

Experiments:
[1] = test system: human cortical neurons; experiment: Inhibition of toxicity of β-amyloid peptide to human neuronal cells (alamarBlue); format: cell-based; conditions: 50 μM β-amyloid peptide, 2-3 days; on average where more than one duplicate experiment; compound concentration not stated
Experimental: The purpose of this test is to determine the effect of 3-indolyl-5-pyrazolone compounds on the toxicity of β-amyloid peptide to neuronal cells.
Primary Human Cortical Cell Culture
Primary human cortical cultures were prepared using a modification of the procedure described by Seubert, et al.^21 Following filtration through Nitex nylon screens, cortical tissue was resuspended in a trypsin/EDTA solution (0.05% trypsin+0.53 mM EDTA in HBSS; GIBCO Laboratories, Grand Island, N.Y., USA) and kept at 37° C. for 20 minutes. The trypsin was then inactivated by resuspending the cells in serum-containing medium (MEM/FBS: Modified Eagles' Medium (MEM) containing 1% glucose, 1 mM sodium pyruvate, 1 mM glutamine, and supplemented with 10% fetal bovine serum (GIBCO). Cells were then pelleted by centrifugation and resuspended in a chemically-defined medium (MEM/B27: MEM containing B27 supplement in place of FBS; GIBCO). Polyethyleneimine (PEI; Sigma Chemical Company, St. Louis, Mo., USA)-coated 6.4 mm (96-well) dishes were rinsed once with MEM/FBS, and then seeded at 0.75 to 1.25×10^5 cells per well in 0.1 mL MEM/B27. Cultures were maintained in a H2 O-saturated incubator with an atmosphere of 95% air/5% CO 2 at 37° C. The culture medium was exchanged twice weekly. Cell viability was visually assessed by phase contrast microscopy and quantified by measuring the reduction of alamarBlue™ (Alamar Biosciences, Inc., Sacramento, Calif., USA).
β-amyloid peptide stock solutions were prepared as 1 mM stocks in sterile, doubly distilled water immediately prior to addition to cultures. Rat cortical neurons were exposed to β-amyloid peptide by removing the culture medium and replacing it with DMEM/N2 (GIBCO Laboratories,Grand Island, N.Y., USA) containing 10 to 20 μM β-amyloid peptide. Human cortical neurons were exposed to test compound plus β-amyloid peptide by removing the culture medium and replacing it with MEM containing 50 μM β-amyloid peptide. Cultures were maintained for 2-3 days before neuronal survival was quantified using alamarBlue™.
The alamarBlue™ assay incorporates a fluorometric/colorimetric metabolic indicator (Alamar Biosciences, Inc. Sacramento, Calif., USA). Viable cells convert alamarBlue™ from an oxidized (non-fluorescent, blue) form to a reduced (fluorescent, red) form. Assays were preformed by replacing the culture media with a 10% alamarBlue™ solution in DMEM (rat cortical cultures) or MEM (human cortical cultures).

[2] = test system: β-amyloid peptide production; experiment: Cellular screen for inhibitors of β-amyloid production (ELISA, 293 751 SWE cells); format: cell-based, human; conditions: 2 h pretreatment + 2 h, normalized for cytotoxicity (MTT), concentration not given
Experimental: (§1) This screening assay employed cells (K293=human kidney cell line) which were stably transfected with the gene for amyloid precursor protein 751 (APP751) containing the double mutation Lys651 Met652 to Asn651 Leu652 (APP751 numbering) in the manner described in International Patent Application Publication No. 94/10569^1 and Citron et al.^16. This mutation is commonly called the Swedish mutation and the cells, designated as "293 751 SWE", were plated in Coming 96-well plates at 1.5-2.5×10^4 cells per well in Dulbecco's minimal essential media plus 10% fetal bovine serum. Cell number is important in order to achieve β-amyloid ELISA results within the linear range of the assay (~0.2 to 2.5 ng per mL).
Following overnight incubation at 37° C. in an incubator equilibrated with 10% carbon dioxide, media were removed and replaced with 200 μL of a substituted 3-indolyl-5-pyrazolone (drug) containing media per well for a two hour pretreatment period and cells were incubated as above.
At the end of the pretreatment period, the media were again removed and replaced with fresh drag containing media as above and cells were incubated for an additional two hours. After treatment, plates were centrifuged in a Beckman GPR at 1200 rpm for five minutes at room temperature to pellet cellular debris from the conditioned media. From each well, 100 μL of conditioned media or appropriate dilutions thereof were transferred into an ELISA plate precoated with antibody 266 against amino acids 13-28 of β-amyloid peptide as described in International Patent Application Publication No. 94/10569^1 and stored at 4° C. overnight. An ELISA assay employing labelled antibody 6C6 against amino acids 1-16 of β-amyloid peptide was run the next day to measure the amount of β-amyloid peptide produced.
The results of the β-amyloid peptide ELISA were fit to a standard curve and expressed as ng/mL β-amyloid peptide. […] All results are the mean and standard deviation of at least six replicate assays.

[3] = test system: 293 751 SWE cells; experiment: Cytotoxicity (MTT) in 293 751 SWE cells; format: cell-based, human; conditions: concentration not given
Experimental: as §1
Cytotoxic effects of the compounds were measured by a modification of the method of Hansen, et al.^17. To the cells remaining in the tissue culture plate was added 25 μL of a 3,(4,5-dimethylthiazol-2-yl)2,5-diphenyltetrazolium bromide (MTT) stock solution (5 mg/mL) to a final concentration of 1 mg/mL. Cells were incubated at 37° C. for one hour, and cellular activity was stopped by the addition of an equal volume of MTT lysis buffer (20% w/v sodium dodecylsulfate in 50% dimethylformamide, pH 4.7). Complete extraction was achieved by overnight shaking at room temperature. The difference in the OD562nm and the OD650nm was measured in a Molecular Device's UVmax microplate reader as an indicator of the cellular viability.

SMILES	inhibition of the toxicity of β-amyloid peptide to human neuronal cells [1]	reduction of β-amyloid peptide production as compared to control [2]	cytotoxic effect on the 293 751 SWE cells [3]
COc1ccc2c(c1)c(CC1=NN(C3CCC3)C(=O)C1)c(C)n2C(=O)c1ccc(Cl)cc1 [Example 10, 3-[1-(4-chlorobenzoyl)-5-methoxy-2-methyl-3-indolylmethyl]-1-cyclobutyl-5-pyrazolone]	at least 25%	–	–
O=C1CC(Cc2cn(C(=O)c3ccc(Cl)cc3)c3ccccc23)=NN1C1CCCCC1 [Example 19, 3-[1-(4-chlorobenzoyl)-3-indolylmethyl]-1-cyclohexyl-5-pyrazolone]	at least 25%	at least 20%	did not have a significant cytotoxic effect
COc1ccc2c(c1)c(CC1=NN(c3cccc(C)c3)C(=O)C1)c(C)n2C(=O)c1ccc(Cl)cc1 [Example 31, 3-[1-(4-chlorobenzoyl)-5-methoxy-2-methyl-3-indolylmethyl]-1-(3-methylphenyl)-5-pyrazolone]	at least 25%	at least 20%	did not have a significant cytotoxic effect
COc1ccc2c(c1)c(CC1=NN(c3cccc(N)c3)C(=O)C1)c(C)n2C(=O)c1ccc(Cl)cc1 [Example 40, 3-[1-(4-chlorobenzoyl)-5-methoxy-2-methyl-3-indolylmethyl]-1-(3-aminophenyl)-5-pyrazolone]	at least 25%	< 20%	–
COc1ccc2c(c1)c(CC1=NN(C3CCCCC3)C(=O)C1=Cc1ccccc1)c(C)n2C(=O)c1ccc(Cl)cc1 [Example 45, 3-[1-(4-chlorobenzoyl)-5-methoxy-2-methyl-3-indolylmethyl]-1-cyclohexyl-4-benzylidene-5-pyrazolone]	< 25%	< 20%	–
COc1ccc(C(=O)n2c(C)c(CC3=NN(C4CCCCC4)C(=O)C3)c3cc(OC)ccc32)cc1 [Example 57, 3-[1-(4-methoxybenzoyl)-5-methoxy-2-methyl-3-indolylmethyl]-1-cyclohexyl-5-pyrazolone]	–	at least 20%	did not have a significant cytotoxic effect
COc1ccc(C(=O)n2c(C)c(CC3=NN(c4cccc(C(F)(F)F)c4)C(=O)C3)c3cc(OC)ccc32)cc1 [Example 58, 3-[1-(4-methoxybenzoyl)-5-methoxy-2-methyl-3-indolylmethyl]-1-(3-trifluoromethylphenyl)-5-pyrazolone]	–	at least 20%	did not have a significant cytotoxic effect
CCCC(=O)n1c(C)c(CC2=NN(C3CCCCC3)C(=O)C2)c2cc(OC)ccc21 [Example 60, 3-[1-butanoyl-5-methoxy-2-methyl-3-indolylmethyl]-1-cyclohexyl-5-pyrazolon]	–	at least 20%	did not have a significant cytotoxic effect
Cc1c(CC2=NN(C3CCCCC3)C(=O)C2)c2cc(Cl)ccc2n1C(=O)c1ccc(Cl)cc1 [Example 62, 3-[1-chlorobenzoyl-5-chloro-2-methyl-3-indolylmethyl]-1-cyclohexyl-5-pyrazolone]	–	at least 20%	did not have a significant cytotoxic effect
Cc1c(CC2=NN(c3cccc(C(F)(F)F)c3)C(=O)C2)c2cc(Cl)ccc2n1C(=O)c1ccc(Cl)cc1 [Example 63, 3-[1-(4-chlorobenzoyl)-5-chloro-2-methyl-3-indolylmethyl]-1-(3-trifluoromethylphenyl)-5-pyrazolone]	–	at least 20%	did not have a significant cytotoxic effect
